One data set has as its system RAW264.7. The data set can be described thus: Inhibition of LPS-induced NO production in mouse RAW264.7 cells after 24 hrs by Griess method. The class given is functional, cell-based. Conditions: RAW264.7, 24 h. For orientation: The Griess reaction detects nitrite, a stable product of nitric oxide.
A short description of data set [1]: Cytotoxicity against mouse RAW264.7 cells assessed as cell viability at 0.5 to 50 uM. Type of data set: cell-based. The settings on record: read-out: Activity.

The structures appear in SMILES notation.

From ChEMBL document CHEMBL3286208, “Pyranocoumarins from Glehnia littoralis inhibit the LPS-induced NO production in macrophage RAW 264.7 cells” (Bioorg Med Chem Lett, 2014) come the findings set out here.

Broadly, the IC50 is the concentration that inhibits the measured activity by half. Read a high IC50 as lower potency.

The compound `CC(C)C(=O)O[C@H]1c2c(ccc3ccc(=O)oc23)OC(C)(C)[C@H]1OC(=O)C(C)C` returned an IC50 in the data set on RAW264.7 of 28.2 µM. Also, the viability at up to 50 µM in data set [1] is over 90%.
On the same counts, the results for `CC(=O)O[C@H]1c2c(ccc3ccc(=O)oc23)OC(C)(C)[C@H]1OC(=O)C=C(C)C` are 44.3 µM and over 90%.
On the same counts, the results for `CC(=O)O[C@H]1c2c(ccc3ccc(=O)oc23)OC(C)(C)[C@H]1OC(=O)CC(C)C` are 18.8 µM and over 90%.
On the same counts, the results for `CC(C)CC(=O)O[C@H]1c2c(ccc3ccc(=O)oc23)OC(C)(C)[C@H]1OC(=O)CC(C)C` are 7.4 µM and over 90%.
`CC(C)=CC(=O)O[C@H]1c2c(ccc3ccc(=O)oc23)OC(C)(C)[C@H]1OC(=O)CC(C)C` returned a half-maximal inhibitory concentration (IC50) with RAW264.7 of 9.9 µM. The viability at up to 50 µM in data set [1] was over 90%.
The corresponding values for `CC(C)=CC(=O)O[C@H]1c2c(ccc3ccc(=O)oc23)OC(C)(C)[C@H]1OC(=O)C=C(C)C` are 9.8 µM and over 90%.
In turn, `N=C(N)NN` [PIMAGEDINE] registered an IC50 in the data set with RAW264.7 of 16.9 µM.
